Consider 21 compounds from ChEMBL document CHEMBL4732143 (Eur J Med Chem, 2021).

Experiment [1] addresses T1, Sphingosine kinase 2 (Homo sapiens) (UniProt Q9NRA0).
T1 sequence (whole entry): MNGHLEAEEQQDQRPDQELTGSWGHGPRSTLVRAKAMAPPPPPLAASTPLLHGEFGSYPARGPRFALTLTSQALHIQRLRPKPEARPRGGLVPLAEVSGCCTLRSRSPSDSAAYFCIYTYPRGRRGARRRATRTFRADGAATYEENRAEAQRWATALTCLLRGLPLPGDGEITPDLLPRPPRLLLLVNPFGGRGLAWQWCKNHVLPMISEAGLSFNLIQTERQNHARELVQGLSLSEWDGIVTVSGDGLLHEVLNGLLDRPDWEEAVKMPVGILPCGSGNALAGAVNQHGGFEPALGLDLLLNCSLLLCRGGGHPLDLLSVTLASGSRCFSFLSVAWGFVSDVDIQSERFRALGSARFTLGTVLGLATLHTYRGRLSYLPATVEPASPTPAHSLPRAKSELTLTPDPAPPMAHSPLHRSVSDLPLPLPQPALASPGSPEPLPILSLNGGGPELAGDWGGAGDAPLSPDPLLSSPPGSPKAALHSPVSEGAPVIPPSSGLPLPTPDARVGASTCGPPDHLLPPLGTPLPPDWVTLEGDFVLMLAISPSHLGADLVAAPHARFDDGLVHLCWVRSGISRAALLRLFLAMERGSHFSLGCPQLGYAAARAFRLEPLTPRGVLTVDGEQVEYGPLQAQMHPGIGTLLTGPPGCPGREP
Description: Inhibition of recombinant human Sphk2 expressed in baculovirus infected Sf9 insect cells assessed as residual activity at 0.3 uM using d-erythro-sphingosine as substrate measured after 20 mins in presence of [gamma-32P]ATP by liquid scintillation counting analysis relative to control.

The target of experiment [2] is T2, Sphingosine kinase 2 (Homo sapiens, UniProt Q9NRA0).
T2 sequence (Q9NRA0 whole entry): T1 sequence (whole entry)
Description: Inhibition of recombinant human Sphk2 expressed in baculovirus infected Sf9 insect cells using d-erythro-sphingosine as substrate measured after 20 mins in presence of [gamma-32P]ATP by liquid scintillation counting analysis.

The target in experiment [3] is T1, Sphingosine kinase 2 (Homo sapiens). The experiment is described as follows: Inhibition of Sphk2 in human U-937 cells using FTY720 as substrate measured after 2 hrs by LC-MS analysis. The following applies: dose 0.1-1 µM. The format is cell-based.
Experiment [4] has the same target. The experiment is described as follows: Inhibition of recombinant human Sphk2 expressed in yeast strain KYA1 assessed as increase in yeast growth measured after 24 hrs.

In the case of `CCCCCCCCCn1ccc2c(-c3noc([C@@H]4CCCN4C(=N)N)n3)cccc21`, the Activity in experiment [1] is 68%. Usually Ki stands for a dissociation constant, usually derived from enzyme kinetics or from competition with a known ligand. `CCCCCCCCCn1ccc2cc(-c3noc([C@@H]4CCCN4C(=N)N)n3)ccc21`: the Activity in experiment [1] was found to be 25%. In addition, the Ki in experiment [2] was 90 nM. Further, the inhibition result in experiment [3] and in experiment [4] was “Dose-dependent effect” each time. For `CCCCCCCCCCn1ccc2c(-c3noc([C@@H]4CCCN4C(=N)N)n3)cccc21`, the Activity in experiment [1] was 64%. As for `CCCCCCCn1ccc2cc(-c3noc([C@@H]4CCCN4C(=N)N)n3)ccc21`, the Activity in experiment [1] came out at 93%. The same measure, in the same setting: the value for `CCCCCCCn1ccc2ccc(-c3noc([C@@H]4CCCN4C(=N)N)n3)cc21` was 103%; that for `CCCCCCCCCCCn1cc(-c2noc([C@@H]3CCCN3C(=N)N)n2)c2ccccc21` was 79%. With `CCCCCCCCCCn1ccc2cc(-c3noc([C@@H]4CCCN4C(=N)N)n3)ccc21`, the Activity in experiment [1] came out at 31%. The inhibition constant Ki in experiment [2] amounted to 120 nM. On the same counts, the results for `CCCCOc1ccc2cc(-c3noc([C@@H]4CCCN4C(=N)N)n3)ccc2c1` are 95% and 980 nM. As for `CCCCCCn1ccc2cc(-c3noc([C@@H]4CCCN4C(=N)N)n3)ccc21`, the Activity in experiment [1] came to 72%.

For the compound `CCCCCCCCCn1cc(-c2noc([C@@H]3CCCN3C(=N)N)n2)c2ccccc21`, the Activity in experiment [1] is 59%.

For `CCCCCCCCCCn1cc(-c2noc([C@@H]3CCCN3C(=N)N)n2)c2ccccc21`, the Activity in experiment [1] came to 47%. Also, the inhibitory constant (Ki) in experiment [2] amounted to 300 nM.

As to `CCCCCCCCCCn1ccc2ccc(-c3noc([C@@H]4CCCN4C(=N)N)n3)cc21`, in experiment [1], the Activity worked out at 68%. With `CCCCCCCCCCCCn1cc(-c2noc([C@@H]3CCCN3C(=N)N)n2)c2ccccc21`, the Activity in experiment [1] came to 46%. Besides, the inhibitory constant (Ki) in experiment [2] came to 290 nM. As to `CCCCCCCCn1ccc2ccc(-c3noc([C@@H]4CCCN4C(=N)N)n3)cc21`, the Activity in experiment [1] came out at 93%. Still for that read-out and setting: the value for `CCCCCCCCn1ccc2cc(-c3noc([C@@H]4CCCN4C(=N)N)n3)ccc21` was 87%; that for `CCCCCCCCCn1cc(-c2noc(C[C@@H]3CCCN3C(=N)N)n2)c2ccccc21` was 98%. Same read-out and setting: for `CCCCCCCCCn1ccc2ccc(-c3noc([C@@H]4CCCN4C(=N)N)n3)cc21` the value was 79%; for `CCCCCCCCn1ccc2c(-c3noc([C@@H]4CCCN4C(=N)N)n3)cccc21`, 84%; for `CCCCCCCn1ccc2c(-c3noc([C@@H]4CCCN4C(=N)N)n3)cccc21`, 89%. On the same count and under the same terms, for `CCCCCCCn1cc(-c2noc([C@@H]3CCCN3C(=N)N)n2)c2ccccc21` the value was 96%.

`CCCCCCCCn1cc(-c2noc([C@@H]3CCCN3C(=N)N)n2)c2ccccc21`: the Activity in experiment [1] turned out to be 73%.
